How the values were obtained:
[1] = in vivo; cited from earlier work
[2] = test system: influenza A/Tasmania/503/2020 virus; experiment: Hemagglutination inhibition (HAI) assay, neutralizing antibody titers after HA mRNA vaccination; assay type: in vivo, BALB/cJ mice; details: female BALB/cJ mice, dose-response vaccination
Experimental: To test this, a dose-response vaccination experiment ranging from […] was performed in female BALB/cJ mice. Neutralizing antibody titers were evaluated using the hemagglutination inhibition (HAI) assay. HAI titers are strongly correlated with vaccine protection and the assay is an FDA approved method for testing influenza vaccine efficacy^38,39 In agreement with the binding antibody titers, higher neutralizing […] were measured across all three tested doses: SM-102 only gave detectable neutralizing immunity at a 1 μg dose, while AMG1541 gave neutralizing immunity with as little was 10 ng of mRNA (FIG. 13H). Not only was AMG1541 able to generate neutralizing immunity at a very low dose, the binding and neutralizing antibody titers were equivalent in mice vaccinated with AMG1541 at a […] as those with SM-102 at a […] (FIG. 13H).
HAI Assay. HAI assays were performed by IBT bioservices. Viral titers were standardized by defining one HA unit as the amount of inactivated influenza A/Tasmania/503/2020 virus required to completely hemagglutinate an equal volume of 1% turkey red blood cells (TRBCs) (Lampire). Serum was heat inactivated at 56° C. then receptor destroying enzyme (RDE) (DENKA) was added to the serum and incubated at 37° C. for 20 hrs. RDE was then deactivated at 56° C. for 60 mins. Serum samples were then serially diluted in DPBS and 25 μL of diluted serum was added to a 96-well V bottom plate. Subsequently, four HA units of inactivated virus in 25 μL of DPBS were added to the diluted serum and incubated for 30 mins. at RT. 50 μL of a 1% (4×10^7 cells/mL) solution of turkey red blood cells (Lampire) was then added to the serum and virus mixture.

[3] = test system: mice; details: FLuc expression in liver and spleen 6 hours after IM injection
Experimental: Evaluation of the LNPs via intramuscular injection. The in vivo potency of the ionizable lipids was screened through intramuscular injection of LNPs loaded with mRNA encoding firefly luciferase protein. These LNPs were formulated with a molar composition of (35:16:46.5:2.5) using one of the synthesized ionizable lipids, DOPE as a helper lipid, cholesterol, and DMPE-PEG respectively. mRNA-loaded LNPs were intramuscularly administered in mice at a dose of 1 μg, and expression of luciferase protein was monitored at 6 hours via IVIS bioluminescent imaging (FIG. 3). […] Without wishing to be bound by theory, increased levels of protein expression may enhance the response to vaccination.
In Vitro and In Vivo Screening of AMG Lipid Library. Following synthesis, the mRNA delivery efficacy of the AMG lipids was evaluated through both in vitro and in vivo screens. To screen the first generation of AMG lipids (FIGS. 11B and 11C), firefly luciferase (FLuc) mRNA was encapsulated into LNPs using a previously reported formulation containing ionizable lipid, 1,2-dioleoyl-sn-glycero-3-phosphoethanolamine (DOPE), cholesterol, and 1,2-dimyristoyl-rac-glycero-3-methoxypolyethylene glycol-2000 (DMG-PEG).^19 C2C12 myoblast cells were treated with these LNPs and FLuc expression was evaluated at 24 hrs. (FIG. 16). […] Each of these batches was then injected IM into the quadriceps of mice, and expression was characterized via IVIS imaging (Screen 1, FIG. 11E).
AMG lipids for enhanced mRNA delivery and improved tolerability. A rational design approach was used to further vary the ionizable lipid structure to enhance the mRNA delivery and immunogenicity. […] The lipid tail structure was varied to promote efficient LNP self-assembly while simultaneously promoting endosomal membrane disruption.^18 Monounsaturated (G41-G44) or fully saturated (GC12-GC18) lipid tails were developed. […] Without wishing to be bound by any particular theory, tail length may impact membrane fusion and endosomal escape.^10,11
Next, the headgroup was further modified to further improve delivery. Headgroups play a multifunctional role including enhancing LNP-mRNA interactions, promoting membrane-LNP fusion and endosomal escape which all contribute to mRNA delivery.^23 A series of similar aza-crown ethers were used to further investigate structure-activity relationship and enhance mRNA delivery. These headgroups featured between three and eight nitrogens linked by varying length of methylene chains. Each of these headgroups were reacted with tail G41 to synthesize a next generation of AMG lipids, which were then formulated with FLuc mRNA and evaluated for mRNA delivery following IM administration in mice (FIG. 12B).

[4] = Ethanol solubility of ionizable lipids; assay type: physicochemical
Excerpt: AMG lipids for enhanced mRNA delivery and improved tolerability.

CCCCCCCCCCCOC(=O)CCCCCN(CCO)CCCCCCCC(=O)OC(CCCCCCCC)CCCCCCCC [SM-102, reference compound]
time SM-102 remained detectable at the injection site [1]: at least 48 hours
time SM-102 remained detectable in the liver and spleen [1]: at least 10 hours
dose giving detectable neutralizing immunity [2]: 1 µg
fold higher mRNA transfection in the liver and spleen compared to AMG1541 [3]: ~100 fold

CCCCCCCCCCCCCC(=O)OCC(O)CN1CCCN(CC(O)COC(=O)CCCCCCCCCCCCC)CCN(CC(O)COC(=O)CCCCCCCCCCCCC)CCCN(CC(O)COC(=O)CCCCCCCCCCCCC)CC1 (mixture of isomers) [AMG10C14]
ethanol solubility [4]: poor ethanol solubility
